According to publication PMC7083565, “In vitro metabolism, reaction phenotyping, enzyme kinetics, CYP inhibition and induction potential of ataluren” (Pharmacology Research & Perspectives, 2020):

Key:
Format in all cases: in vitro ADME
[1] = Plasma protein binding (ultrafiltration), mouse; settings: male, C57/BL10, 50 to 50 000 ng/mL, mean ± SD, n = 3, read-out: percentage protein binding (converted)
Experimental: (§1) [^14C]‐Ataluren, at 50, 500, 5000, and 50 000 ng/mL or 0.175, 1.75, 17.5, and 175 µM, in male mouse, rat, dog, monkey, and human plasma, was incubated (n = 3) at 37°C for approximately 15 minutes, transferred into Centrifree® Micropartition Units (30 000 Da molecular weight cutoff, 1 mL capacity; Amicon Inc), and centrifuged at 37°C and 2000 g for approximately 10 minutes so that the amount of the sample filtered was approximately ≤ 20% of the total volume. After centrifugation, the entire ultrafiltrate was weighed and analyzed for radioactivity using liquid scintillation counting. The percent bound = (1‐Cu/Cm)×100, where Cu is the concentration of radioactivity in the ultrafiltrate and Cm is the concentration of radioactivity in the plasma before centrifugation.

[2] = Plasma protein binding (ultrafiltration), dog; settings: male, beagle, 50 to 50 000 ng/mL, mean ± SD, n = 3, read-out: percentage protein binding (converted)
Experimental: as §1

CYP2B6 = target: T1, CYP2B6 (Homo sapiens, UniProt P20813); assay: CYP inhibition in pooled human liver microsomes: CYP2B6; settings: CYP2B6, HLM, estimated, concentrations up to 400 μmol/L
T1 construct: tissue XenoTech LLC, Celsis-In Vitro Technologies, or Tissue Transformation Technologies; host or cells: pooled human liver microsomes
T1 sequence (P20813 1-491): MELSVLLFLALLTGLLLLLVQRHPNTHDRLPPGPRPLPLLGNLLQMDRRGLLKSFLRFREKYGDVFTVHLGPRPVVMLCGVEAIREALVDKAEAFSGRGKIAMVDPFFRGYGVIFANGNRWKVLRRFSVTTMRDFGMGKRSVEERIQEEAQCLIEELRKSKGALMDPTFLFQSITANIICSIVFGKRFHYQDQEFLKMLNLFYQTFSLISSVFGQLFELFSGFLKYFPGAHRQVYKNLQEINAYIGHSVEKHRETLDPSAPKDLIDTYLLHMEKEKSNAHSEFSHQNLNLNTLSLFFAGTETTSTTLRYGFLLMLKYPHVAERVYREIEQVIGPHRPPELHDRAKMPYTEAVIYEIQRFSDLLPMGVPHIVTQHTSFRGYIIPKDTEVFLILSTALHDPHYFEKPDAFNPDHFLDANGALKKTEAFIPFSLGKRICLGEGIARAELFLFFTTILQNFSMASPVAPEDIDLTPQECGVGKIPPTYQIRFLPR
Experimental: (§2) The final concentration of each probe substrate was near the experimentally determined Km value for the indicated enzyme. Ataluren or prototypical CYP inhibitors (positive controls) was incubated (n = 3) with probe substrates and HLM in 100 mmol/L phosphate buffer (pH 7.4) in a total volume of approximately 0.25 mL, and the reactions were initiated by the addition of 1 mmol/L NADPH at 37°C. The reactions were carried out using previously established conditions to ensure linearity with respect to protein concentration and incubation time (Table S1). Incubations were stopped with the addition of ice‐cold acetonitrile. Metabolite formation in incubations with test compound and control inhibitors was assessed with LC‐MS/MS methods for each of the reaction products as described in Table S2. […] After 7 minutes incubation at 37°C, the reaction was stopped by the addition of ice‐cold acetonitrile, followed by membrane plate filtration. The filtrates were used for LC‐MS/MS analysis. […] IC50 values were determined by nonlinear regression with GraphPad Prism 5 using the following four‐parameter sigmoidal‐logistic IC50 equation: Fit=background+range-background/[1+I/IC50^slope]
(§3) Where, I is the inhibitor concentration, and background was set to 0 and range to 100, as percent of control values are utilized. K i was determined by nonlinear regression with GraphPad Prism 5 using best fit model.

CYP2C19 [3] = target: T2, CYP2C19 (Homo sapiens, UniProt P33261); assay: CYP inhibition in pooled human liver microsomes: CYP2C19; settings: CYP2C19, HLM, estimated, concentrations up to 400 μmol/L
T2 construct: tissue XenoTech LLC, Celsis-In Vitro Technologies, or Tissue Transformation Technologies; host or cells: pooled human liver microsomes
T2 sequence (P33261 whole entry): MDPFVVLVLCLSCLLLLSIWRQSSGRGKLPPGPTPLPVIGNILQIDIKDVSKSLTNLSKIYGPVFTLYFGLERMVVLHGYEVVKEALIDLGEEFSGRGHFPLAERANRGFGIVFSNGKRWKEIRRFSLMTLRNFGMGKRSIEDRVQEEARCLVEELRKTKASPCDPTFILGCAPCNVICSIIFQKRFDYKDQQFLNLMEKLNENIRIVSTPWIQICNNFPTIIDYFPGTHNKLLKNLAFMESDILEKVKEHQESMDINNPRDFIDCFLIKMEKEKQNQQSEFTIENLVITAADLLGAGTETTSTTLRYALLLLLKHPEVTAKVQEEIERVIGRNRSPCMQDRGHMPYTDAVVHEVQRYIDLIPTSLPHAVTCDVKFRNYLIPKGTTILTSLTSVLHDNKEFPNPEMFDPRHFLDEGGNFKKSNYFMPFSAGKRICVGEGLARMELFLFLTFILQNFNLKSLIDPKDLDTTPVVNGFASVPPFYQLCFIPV
Experimental: as §2, §3

CYP2C19 [4] = assay: CYP induction in primary human hepatocytes: CYP2C19; settings: male, 48 h
Experimental: Human hepatocytes isolated from three Caucasian males were transferred to 48‐well collagen‐coated plates at 0.14 × 10^6 cells/well in planting media for attachment. After attachment, planting media was replaced with sandwich media and the cells were incubated until clusters were established. […] The incubation solutions were aspirated and replaced with freshly prepared incubation solutions containing ataluren for an additional 24 hours. […] The incubation solutions were then aspirated and 150 µL of K‐H buffer containing CYP substrates were added. […] Metabolite formation in incubations with test compounds and control inhibitors was assessed with validated LC‐MS/MS methods for each of the reaction products as described in Table S2. Enzymatic activity for each CYP was calculated using the absolute amount of metabolite formed (pmol) divided by hepatocytes in the incubation (million cells) and the incubation time (minute). The relative fold induction in enzymatic activity was calculated by comparing the rate of metabolite formation for treatment groups to that of the solvent control group (reported as vehicle control%) or positive control group (reported as positive control%).

[5] = Free fraction in human liver microsomes (internal data); settings: between 1 and 200 µmol/L, 0.1 mg/mL protein concentration

Structure (SMILES): O=C(O)c1cccc(-c2noc(-c3ccccc3F)n2)c1 [ataluren, Ataluren]
- fraction unbound at 15 min [1]: 0.016
- fraction unbound at 15 min [2]: 0.025
- IC50 (CYP2B6): > 400 µM
- IC50 (CYP2C19 [3]): > 400 µM
- Vehicle control %, Mean (CYP2C19 [4]; 4 µM): 112%
- Vehicle control %, Mean (CYP2C19 [4]; 400 µM): 99.0%
- Free fractions of ataluren in human liver microsomes [5]: close to unity
